According to patent US20220218801A1, “COMBINATION GMCI AND ATRI CANCER TREATMENT” (Candel Therapeutics, Inc., priority 2019, published 2022):

What was measured:
glioma cell line (GL261) [1] = test: glioma cell viability assay (Presto Blue, fluorescence); assay type: cell-based
Method: The combination of GMCI and ATRi (AZD6738) is examined for anti-cancer activity. A schematic of an experimental design to test the effect of combining of GMCI and ATR inhibitor combination on glioma cells is illustrated in FIG. 1. At the start of the study (Day 0), a glioma cell line (GL261; NCI-Frederick Cancer Research Tumor Repository, Frederick, Md.) is plated at a density of 5000 cells per well. For the samples on which GMCI is administered, on the following day (Day 1) AdV-tk vector is added at a concentration of approximately […] (100 MOI). Starting on Day 2, to the samples being treated with GMCI, ganciclovir is added to a concentration of 5 μg/ml. […] At Day 4, cell viability is assayed by the addition of a vial dye such as Presto Blue assay (Life Technologies) and quantified by fluorescence spectrometry.
Synergism was analyzed by the Combination Index (CI) calculation with the formula of Chou-Talalay (Chou 2010; Ting-Chao Chou 1984). CI values above 1.00 indicate antagonistic effect of combination agents, a CI of 1.00 indicates an additive effect, and CI values below 1.00 indicate synergistic effect.

glioma cell line (GL261) [2] = test: double-stranded DNA breaks by H2AX Ser139 staining (confocal microscopy); assay type: cell-based; details: 6 hours after addition of ATRi (IC50 concentration) and/or GCV 5 μg/ml, compared with untreated cells
Method: In another experiment, the frequency of double-stranded DNA breaks in glioma cells treated with GMCI, ATRi, or the combination. The formation of double-stranded DNA breaks was examined by staining the cells for H2AX-Ser139 as previously performed (Speranza et al. 2017).
At the start of the study (Day 0), glioma cell line (GL261; NCI-Frederick Cancer Research Tumor Repository, Frederick, Md.) is plated at a density of 12,500 cells per well of a 24 well plate containing glass coverslips. For the samples to which GMCI is administered, AdV-tk vector is added at a concentration of approximately 1.25×10^6 vp/ml (100 MOI). Starting on Day 1, to the samples being treated with GMCI, ganciclovir is added to a concentration of 5 μg/ml. In samples exposed to ATRi, starting at Day 1 AZD6738 was added at a concentration to the IC50 concentration of the drug. either in combination with GMCI or alone, as indicated. At a timepoint 6 hours after addition of the ATRi and/or GCV, the cells were fixed in 4% paraformaldehyde in phosphate buffered saline. After blocking with 5% donkey serum/0.5% Tween 20, 0.02% TX100/PBS for 1 hour at room temperature (RT), cells were washed 3 times with washing buffer (0.5% Tween 20, 0.02% TX100/PBS) and stained with H2AX Ser139 antibody (1:100). The next day the samples were washed and incubated for 2 hours with a fluorescently-tagged secondary antibody plus Hoechst 33342. […]

In the case of `C[C@@H]1COCCN1c1cc(C2([S@](C)(=N)=O)CC2)nc(-c2cc[nH]c3nccc2-3)n1` [AZD6738], the “cell viability (fluorescence normalized to no treatment)” value (glioma cell line (GL261) [1]; GL261, single agents, AZD6738 at IC50 (1 μM) or ½ IC50 (0.5 μM) from Day 2, GMCI = AdV-tk 100 MOI + ganciclovir 5 μg/ml, read at Day 4) is reported as “cytotoxic activity”, the IC50 (glioma cell line (GL261) [1]; Mus musculus, GL261 glioma cells, read-out: IC50 concentration) is reported as 1000 nM and the “double-stranded DNA breaks / H2AX(Ser139) staining” value (glioma cell line (GL261) [2]) is reported as “Double-stranded DNA breaks occur”. The “double-stranded DNA breaks / H2AX(Ser139) staining” value (glioma cell line (GL261) [2]; listed as ATRi) was “large increase in H2AX staining”.
